What follows are compounds tested against T1, human ENT1 (Homo sapiens, UniProt Q99808) (assay: ENT1 binding assay (competition with Sahenta-DY647 on JAR cells)). Conditions: binned IC50.
T1 sequence (Q99808 1-456): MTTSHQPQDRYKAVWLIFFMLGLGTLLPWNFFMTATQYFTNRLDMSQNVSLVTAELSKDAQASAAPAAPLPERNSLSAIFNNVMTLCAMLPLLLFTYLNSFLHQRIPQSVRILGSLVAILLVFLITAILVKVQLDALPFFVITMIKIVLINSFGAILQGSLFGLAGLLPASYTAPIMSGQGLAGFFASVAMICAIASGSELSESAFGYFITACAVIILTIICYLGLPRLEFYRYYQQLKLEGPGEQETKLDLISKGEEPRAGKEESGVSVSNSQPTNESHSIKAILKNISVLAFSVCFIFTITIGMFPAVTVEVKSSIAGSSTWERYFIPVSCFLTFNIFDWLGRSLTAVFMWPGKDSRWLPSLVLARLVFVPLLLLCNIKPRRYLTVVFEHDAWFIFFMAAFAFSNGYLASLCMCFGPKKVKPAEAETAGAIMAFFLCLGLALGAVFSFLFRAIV
Parameters: JAR cells expressing ENT1 were bought from ATCC; host or cells: JAR cells
Method in brief: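 JAR cells were incubated with test compounds and the fluorescent ligand Sahenta-DY647 in competition. Plates were washed twice by centrifugation (4 min, 400 rcf, 4 °C). Binding potency was derived from the final fluorescence.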

Row | Compound | IC50 [nM]
1 | COCCN(CCOC)c1nc(N2CCN(C)C(=O)C2)c2nc(N3CCN(C(=O)OC)CC3)nc(N3CCC(OC)CC3)c2n1 [Compound 284, methyl 4-(6-(bis(2-methoxyethyl)amino)-4-(4-methoxypiperidin-1-yl)-8-(4-methyl-3-oxopiperazin-1-yl)pyrimido[5,4-d]pyrimidin-2-yl)piperazine-1-carboxylate] | 500 to 1000
2 | COCCN(CCn1ccnc1)c1nc(N2CCN(C)C(=O)C2)c2nc(N(CCOC)CCOC)nc(N3CCC(OC)CC3)c2n1 [Compound 285, 4-(2-((2-(1H-imidazol-1-yl)ethyl)(2-methoxyethyl)amino)-6-(bis(2-methoxyethyl)amino)-8-(4-methoxypiperidin-1-yl)pyrimido[5,4-d]pyrimidin-4-yl)-1-methylpiperazin-2-one] | 100 to 500
3 | COCCN(CCOC)c1nc(N2CCN(C)C(=O)C2)c2nc(N(CCOC)CCn3ccnc3)nc(N3CCC(OC)CC3)c2n1 [Compound 286, 4-(6-((2-(1H-imidazol-1-yl)ethyl)(2-methoxyethyl)amino)-2-(bis(2-methoxyethyl)amino)-8-(4-methoxypiperidin-1-yl)pyrimido[5,4-d]pyrimidin-4-yl)-1-methylpiperazin-2-one] | 100 to 500
4 | COCCN(CCOC)c1nc(N2CCC(OC)CC2)c2nc(N3CCn4nncc4C3)nc(N3CCN(C)C(=O)C3)c2n1 [Compound 287, 4-(6-(bis(2-methoxyethyl)amino)-2-(6,7-dihydro-[1,2,3]triazolo[1,5-a]pyrazin-5(4H)-yl)-8-(4-methoxypiperidin-1-yl)pyrimido[5,4-d]pyrimidin-4-yl)-1-methylpiperazin-2-one] | 100 to 500
5 | COCCN(CCOC)c1nc(N2CCN(C)C(=O)C2)c2nc(N3CCn4nncc4C3)nc(N3CCC(OC)CC3)c2n1 [Compound 288, 4-(2-(bis(2-methoxyethyl)amino)-6-(6,7-dihydro-[1,2,3]triazolo[1,5-a]pyrazin-5(4H)-yl)-8-(4-methoxypiperidin-1-yl)pyrimido[5,4-d]pyrimidin-4-yl)-1-methylpiperazin-2-one] | 100 to 500
6 | COCCN(CCCS(C)(=O)=O)c1nc(N2CCN(C)C(=O)C2)c2nc(N(CCOC)CCOC)nc(N3CCC(OC)CC3)c2n1 [Compound 289, 4-(6-(bis(2-methoxyethyl)amino)-2-((2-methoxyethyl)(3-(methylsulfonyl)propyl)amino)-8-(4-methoxypiperidin-1-yl)pyrimido[5,4-d]pyrimidin-4-yl)-1-methylpiperazin-2-one] | < 100
7 | COCCN(CCOC)c1nc(N2CCC(OC)CC2)c2nc(N3CCc4[nH]cnc4C3)nc(N3CCN(C)C(=O)C3)c2n1 [Compound 290, 4-(6-(bis(2-methoxyethyl)amino)-8-(4-methoxypiperidin-1-yl)-2-(1,4,6,7-tetrahydro-5H-imidazo[4,5-c]pyridin-5-yl)pyrimido[5,4-d]pyrimidin-4-yl)-1-methylpiperazin-2-one] | 500 to 1000
8 | COCCN(CCOC)c1nc(N2CCN(C)C(=O)C2)c2nc(N3CCc4[nH]cnc4C3)nc(N3CCC(OC)CC3)c2n1 [Compound 291, 4-(2-(bis(2-methoxyethyl)amino)-8-(4-methoxypiperidin-1-yl)-6-(1,4,6,7-tetrahydro-5H-imidazo[4,5-c]pyridin-5-yl)pyrimido[5,4-d]pyrimidin-4-yl)-1-methylpiperazin-2-one] | 500 to 1000
9 | COCCN(CCOC)c1nc(N2CCN(C)C(=O)C2)c2nc(N3CCC(S(C)(=O)=O)CC3)nc(N3CCC(OC)CC3)c2n1 [Compound 292, 4-(2-(bis(2-methoxyethyl)amino)-8-(4-methoxypiperidin-1-yl)-6-(4-(methyisulfonyl)piperidin-1-yl)pyrimido[5,4-d]pyrimidin-4-yl)-1-methylpiperazin-2-one] | 100 to 500
10 | COCCN(CCOC)c1nc(N2CCC(OC)CC2)c2nc(N3CCN(c4ncccc4N)CC3)nc(N3CCN(C)C(=O)C3)c2n1 [Compound 293, 4-(2-(4-(3-aminopyridin-2-yl)piperazin-1-yl)-6-(bis(2-methoxyethyl)amino)-8-(4-methoxypiperidin-1-yl)pyrimido[5,4-d]pyrimidin-4-yl)-1-methylpiperazin-2-one] | 100 to 500
11 | COCCN(CCOC)c1nc(N2CCN(C)C(=O)C2)c2nc(N3CCN(c4ncccc4N)CC3)nc(N3CCC(OC)CC3)c2n1 [Compound 294, 4-(6-(4-(3-aminopyridin-2-yl)piperazin-1-yl)-2-(bis(2-methoxyethyl)amino)-8-(4-methoxypiperidin-1-yl)pyrimido[5,4-d]pyrimidin-4-yl)-1-methylpiperazin-2-one] | < 100
12 | COCCN(CCOC)c1nc(N2CCC(OC)CC2)c2nc(N3CCn4ccnc4C3)nc(N3CCN(C)C(=O)C3)c2n1 [Compound 295, 4-(6-(bis(2-methoxyethyl)amino)-2-(5,6-dihydroimidazo[1,2-a]pyrazin-7(8H)-yl)-8-(4-methoxypiperidin-1-yl)pyrimido[5,4-d]pyrimidin-4-yl)-1-methylpiperazin-2-one] | 100 to 500
13 | COCCN(CCOC)c1nc(N2CCN(C)C(=O)C2)c2nc(N3CCn4ccnc4C3)nc(N3CCC(OC)CC3)c2n1 [Compound 296, 4-(2-(bis(2-methoxyethyl)amino)-6-(5,6-dihydroimidazo[1,2-a]pyrazin-7(8H)-yl)-8-(4-methoxypiperidin-1-yl)pyrimido[5,4-d]pyrimidin-4-yl)-1-methylpiperazin-2-one] | 100 to 500
14 | COCCN(CCOC)c1nc(N2CCC(OC)CC2)c2nc(N3CCn4cncc4C3)nc(N3CCN(C)C(=O)C3)c2n1 [Compound 297, 4-(6-(bis(2-methoxyethyl)amino)-2-(5,6-dihydroimidazo[1,5-a]pyrazin-7(8H)-yl)-8-(4-methoxypiperidin-1-yl)pyrimido[5,4-d]pyrimidin-4-yl)-1-methylpiperazin-2-one] | 100 to 500
15 | COCCN(CCOC)c1nc(N2CCN(C)C(=O)C2)c2nc(N3CCn4cncc4C3)nc(N3CCC(OC)CC3)c2n1 [Compound 298, 4-(2-(bis(2-methoxyethyl)amino)-6-(5,6-dihydroimidazo[1,5-a]pyrazin-7(8H)-yl)-8-(4-methoxypiperidin-1-yl)pyrimido[5,4-d]pyrimidin-4-yl)-1-methylpiperazin-2-one] | 500 to 1000
16 | COCCN(CCOC)c1nc(N2CCN(C)C(=O)C2)c2nc(N3CCn4cnnc4C3)nc(N3CCC(OC)CC3)c2n1 [Compound 299, 4-(2-(bis(2-methoxyethyl)amino)-6-(5,6-dihydro-[1,2,4]triazolo[4,3-a]pyrazin-7(8H)-yl)-8-(4-methoxypiperidin-1-yl)pyrimido[5,4-d]pyrimidin-4-yl)-1-methylpiperazin-2-one] | 100 to 500
17 | CCN(CCN1CCCC1)c1nc(N2CCN(C)C(=O)C2)c2nc(N(CCOC)Cc3cc(OC)c(OC)c(OC)c3)nc(N3CCC(OC)CC3)c2n1 [Compound 300, 4-(2-(ethyl(2-(pyrrolidin-1-yl)ethyl)amino)-6-((2-methoxyethyl)(3,4,5-trimethoxybenzyl)amino)-8-(4-methoxypiperidin-1-yl)pyrimido[5,4-d]pyrimidin-4-yl)-1-methylpiperazin-2-one] | 100 to 500
18 | COCCN(CCOC)c1nc(N2CCn3nc(C)nc3C2)c2nc(N(CCOC)CCOC)nc(N3CCN(C)C(=O)C3)c2n1 [Compound 301, 4-(2,6-bis(bis(2-methoxyethyl)amino)-8-(2-methyl-5,6-dihydro-[1,2,4]triazolo[1,5-a]pyrazin-7(8H)-yl)pyrimido[5,4-d]pyrimidin-4-yl)-1-methylpiperazin-2-one] | < 100
19 | COCCN(Cc1ccc(OC)c(OC)c1OC)c1nc(N2CCN(C)C(=O)C2)c2nc(N(CCOC)CCOC)nc(N3CCC(OC)CC3)c2n1 [Compound 302, 4-(6-(bis(2-methoxyethyl)amino)-2-((2-methoxyethyl)(2,3,4-trimethoxybenzyl)amino)-8-(4-methoxypiperidin-1-yl)pyrimido[5,4-d]pyrimidin-4-yl)-1-methylpiperazin-2-one] | < 100
20 | COCCN(CCOC)c1nc(N2CCN(C)C(=O)C2)c2nc(N(CCOC)Cc3ccc(OC)c(OC)c3OC)nc(N3CCC(OC)CC3)c2n1 [Compound 303, 4-(2-(bis(2-methoxyethyl)amino)-6-((2-methoxyethyl)(2,3,4-trimethoxybenzyl)amino)-8-(4-methoxypiperidin-1-yl)pyrimido[5,4-d]pyrimidin-4-yl)-1-methylpiperazin-2-one] | < 100
21 | COCCN(Cc1ccc(OC)c(OC)c1OC)c1nc(N2CCC(OC)CC2)c2nc(N(CCO)CCO)nc(N3CCN(C)C(=O)C3)c2n1 [Compound 304, 4-(2-(bis(2-hydroxyethyl)amino)-6-((2-methoxyethyl)(2,3,4-trimethoxybenzyl)amino)-8-(4-methoxypiperidin-1-yl)pyrimido[5,4-d]pyrimidin-4-yl)-1-methylpiperazin-2-one] | < 100
22 | COCCN(Cc1ccc(OC)c(OC)c1OC)c1nc(N2CCN(C)C(=O)C2)c2nc(N(CCO)CCO)nc(N3CCC(OC)CC3)c2n1 [Compound 305, 4-(6-(bis(2-hydroxyethyl)amino)-2-((2-methoxyethyl)(2,3,4-trimethoxybenzyl)amino)-8-(4-methoxypiperidin-1-yl)pyrimido[5,4-d]pyrimidin-4-yl)-1-methylpiperazin-2-one] | < 100
23 | COCCN(CCO)c1nc(N2CCN(C)C(=O)C2)c2nc(N(CCO)CCOC)nc(N3CCC(OC)CC3)c2n1 [Compound 306, 4-(2,6-bis((2-hydroxyethyl)(2-methoxyethyl)amino)-8-(4-methoxypiperidin-1-yl)pyrimido[5,4-d]pyrimidin-4-yl)-1-methylpiperazin-2-one] | 100 to 500

— patent US20230146675A1, “PYRIMIDO[5,4-d]PYRIMIDINE DERIVATIVES AS ENT INHIBITORS FOR THE TREATMENT OF CANCERS, AND COMBINATION THEREOF WITH ADENOSINE RECEPTOR ANTAGONISTS” (ITEOS BELGIUM SA, priority 2020, published 2023)
